Test results from ChEMBL document CHEMBL3046027, “In vitro and in vivo antifungal activity of synthetic pure isothiocyanates against Sclerotinia sclerotiorum” (Pest Manag Sci, 2011).

Tests used:
[1] = tested on: Sclerotinia sclerotiorum; experiment: Antifungal activity against Sclerotinia sclerotiorum assessed as inhibition of mycelial growth in volatile phase at 39 umol/l measured at 20 degC after 5 days; assay type: functional; conditions: 120 h, read-out: GI
[2] = tested on: Sclerotinia sclerotiorum; experiment: Fungistatic activity in Sclerotinia sclerotiorum assessed as inhibition of mycelial growth in volatile phase at 550 umol/l measured at 20 degC after 5 days relative to control; assay type: functional; conditions: 120 h, read-out: GI
[3] = tested on: Sclerotinia sclerotiorum; experiment: Antifungal activity against Sclerotinia sclerotiorum assessed as inhibition of germination in volatile phase at 39 umol/l measured at 20 degC after 5 days; assay type: functional; conditions: 120 h
[4] = tested on: Sclerotinia sclerotiorum; experiment: Fungistatic activity in Sclerotinia sclerotiorum assessed as inhibition of mycelial growth in volatile phase measured at 20 degC after 5 days; assay type: functional, organism-based; conditions: 120 h
[5] = tested on: Sclerotinia sclerotiorum; experiment: Antifungal activity against Sclerotinia sclerotiorum assessed as inhibition of germination in volatile phase at 79 umol/l measured at 20 degC after 5 days; assay type: functional; conditions: 120 h
[6] = tested on: Sclerotinia sclerotiorum; experiment: Antifungal activity against Sclerotinia sclerotiorum assessed as inhibition of mycelial growth in contact phase at 708 umol/l measured at 20 degC after 5 days; assay type: functional; conditions: 120 h, read-out: GI
[7] = tested on: Sclerotinia sclerotiorum; experiment: Fungistatic activity in Sclerotinia sclerotiorum assessed as viability in volatile phase at 786 umol/l measured at 20 degC after 5 days relative to control; assay type: functional; conditions: 120 h, read-out: GI
[8] = tested on: Sclerotinia sclerotiorum; experiment: Fungistatic activity in Sclerotinia sclerotiorum assessed as inhibition of mycelial growth in contact phase at 2358 umol/l measured at 20 degC after 5 days relative to control; assay type: functional; conditions: 120 h, read-out: GI
[9] = tested on: Sclerotinia sclerotiorum; experiment: Antifungal activity against Sclerotinia sclerotiorum assessed as inhibition of mycelial growth in volatile phase at 393 umol/l measured at 20 degC after 5 days; assay type: functional; conditions: 120 h, read-out: GI
[10] = tested on: Sclerotinia sclerotiorum; experiment: Fungistatic activity in Sclerotinia sclerotiorum assessed as inhibition of carpogenic germination in volatile phase at 393 umol/l measured at 20 degC after 5 days relative to control; assay type: functional; conditions: 120 h
[11] = tested on: Sclerotinia sclerotiorum; experiment: Antifungal activity against Sclerotinia sclerotiorum assessed as inhibition of mycelial growth in volatile phase at 550 umol/l measured at 20 degC after 5 days; assay type: functional; conditions: 120 h, read-out: GI
[12] = tested on: Sclerotinia sclerotiorum; experiment: Antifungal activity against Sclerotinia sclerotiorum assessed as inhibition of germination in volatile phase at 786 umol/l measured at 20 degC after 5 days; assay type: functional; conditions: 120 h
[13] = tested on: Sclerotinia sclerotiorum; experiment: Antifungal activity against Sclerotinia sclerotiorum assessed as inhibition of mycelial growth in volatile phase at 79 umol/l measured at 20 degC after 5 days; assay type: functional; conditions: 120 h, read-out: GI
[14] = tested on: Sclerotinia sclerotiorum; experiment: Antifungal activity against Sclerotinia sclerotiorum assessed as inhibition of mycelial growth in volatile phase at 786 umol/l measured at 20 degC after 5 days; assay type: functional; conditions: 120 h, read-out: GI
[15] = tested on: Sclerotinia sclerotiorum; experiment: Antifungal activity against Sclerotinia sclerotiorum assessed as inhibition of mycelial growth in contact phase at 2358 umol/l measured at 20 degC after 5 days; assay type: functional; conditions: 120 h, read-out: GI
[16] = tested on: Sclerotinia sclerotiorum; experiment: Fungistatic activity in Sclerotinia sclerotiorum assessed as sclerotial viability measured at 20 degC after 5 days; assay type: functional, organism-based; conditions: 120 h
[17] = tested on: Sclerotinia sclerotiorum; experiment: Antifungal activity against Sclerotinia sclerotiorum assessed as inhibition of mycelial growth in contact phase at 786 umol/l measured at 20 degC after 5 days; assay type: functional; conditions: 120 h, read-out: GI
[18] = tested on: Sclerotinia sclerotiorum; experiment: In vivo antifungal Sclerotinia sclerotiorum in Pepper (Capsicum annuum L. cv. Sera Demre) assessed as inhibition of mycelial growth in volatile phase at 158 umol/L measured after 10 to 14 weeks; assay type: functional
[19] = tested on: Sclerotinia sclerotiorum; experiment: Fungistatic activity in Sclerotinia sclerotiorum assessed as inhibition of carpogenic germination in volatile phase at 79 umol/l measured at 20 degC after 5 days relative to control; assay type: functional; conditions: 120 h
[20] = tested on: Sclerotinia sclerotiorum; experiment: In vivo antifungal Sclerotinia sclerotiorum in Pepper (Capsicum annuum L. cv. Sera Demre) assessed as inhibition of mycelial growth in volatile phase at 79 umol/L measured after 10 to 14 weeks; assay type: functional
[21] = tested on: Sclerotinia sclerotiorum; experiment: Antifungal activity against Sclerotinia sclerotiorum assessed as inhibition of germination in volatile phase at 393 umol/l measured at 20 degC after 5 days; assay type: functional; conditions: 120 h
[22] = tested on: Sclerotinia sclerotiorum; experiment: Antifungal activity against Sclerotinia sclerotiorum assessed as inhibition of germination in volatile phase at 236 umol/l measured at 20 degC after 5 days; assay type: functional; conditions: 120 h
[23] = tested on: Sclerotinia sclerotiorum; experiment: Fungistatic activity in Sclerotinia sclerotiorum assessed as inhibition of carpogenic germination in volatile phase at 786 umol/l measured at 20 degC after 5 days relative to control; assay type: functional; conditions: 120 h
[24] = tested on: Sclerotinia sclerotiorum; experiment: Antifungal activity against Sclerotinia sclerotiorum assessed as inhibition of mycelial growth in contact phase at 550 umol/l measured at 20 degC after 5 days; assay type: functional; conditions: 120 h, read-out: GI
[25] = tested on: Sclerotinia sclerotiorum; experiment: Fungistatic activity in Sclerotinia sclerotiorum assessed as inhibition of mycelial growth in contact phase measured at 20 degC after 5 days; assay type: functional, organism-based; conditions: 120 h
[26] = tested on: Sclerotinia sclerotiorum; experiment: Antifungal activity against Sclerotinia sclerotiorum assessed as inhibition of mycelial growth in contact phase at 1572 umol/l measured at 20 degC after 5 days; assay type: functional; conditions: 120 h, read-out: GI

How did the inhibition of growth at 39 µM [1] turn out when `CCN=C=S` [ETHYL ISOTHIOCYANATE] was run?
Its inhibition of growth at 39 µM is 5%.

What about the inhibition of growth at 550 µM [2] of the same molecule?
The inhibition of growth at 550 µM was 100%.

What about the inhibition at 39 µM [3] of the same molecule?
Its inhibition at 39 µM is 0%.

What about the EC50 [4] of the same molecule?
The EC50 was 157 µM.

What about the inhibition at 79 µM [5] of the same molecule?
Its inhibition at 79 µM is 26.7%.

What about the inhibition of growth at 708 µM [6] of the same molecule?
Its inhibition of growth at 708 µM is 56.2%.

What about the inhibition of growth at 786 µM [7] of the same molecule?
The inhibition of growth at 786 µM was 100%.

And the inhibition of growth at 2358 µM [8]?
Its inhibition of growth at 2358 µM is 100%.

And the inhibition of growth at 393 µM [9]?
The inhibition of growth at 393 µM was 56%.

And the inhibition at 393 µM [10]?
Its inhibition at 393 µM is 62.5%.

And the inhibition of growth at 550 µM [11]?
The inhibition of growth at 550 µM was 100%.

What about the inhibition at 786 µM [12] of the same molecule?
The inhibition at 786 µM was 100%.

And the inhibition of growth at 79 µM [13]?
Its inhibition of growth at 79 µM is 30.8%.

What about the inhibition of growth at 786 µM [14] of the same molecule?
The inhibition of growth at 786 µM was 100%.

And the inhibition of growth at 2358 µM [15]?
The inhibition of growth at 2358 µM was 100%.

And the EC50 [16]?
Its EC50 is 212 µM.

And the inhibition of growth at 786 µM [17]?
The inhibition of growth at 786 µM was 69.5%.

What about the inhibition in vivo at 158 µM [18] of the same molecule?
The inhibition in vivo at 158 µM was 70%.

What about the inhibition at 79 µM [19] of the same molecule?
The inhibition at 79 µM was 52.5%.

And the inhibition in vivo at 79 µM [20]?
The inhibition in vivo at 79 µM was 38.3%.

What about the inhibition at 393 µM [21] of the same molecule?
The inhibition at 393 µM was 66.7%.

What about the inhibition at 236 µM [22] of the same molecule?
The inhibition at 236 µM was 46.7%.

What about the inhibition at 786 µM [23] of the same molecule?
Its inhibition at 786 µM is 87.5%.

And the inhibition of growth at 550 µM [24]?
The inhibition of growth at 550 µM was 34.2%.

What about the EC50 [25] of the same molecule?
Its EC50 is 653 µM.

What about the inhibition of growth at 1572 µM [26] of the same molecule?
Its inhibition of growth at 1572 µM is 81.5%.
